In patent US20250340545A1, “TETRAHYDROISOQUINOLINE COMPOUND, PREPARATION METHOD THEREFOR, PHARMACEUTICAL COMPOSITION CONTAINING SAID COMPOUND, AND USE THEREOF” (SHANGHAI INSTITUTE OF MATERIA MEDICA, CHINESE ACADEMY OF …, priority 2022, published 2025):

How the values were obtained:
[1] = target: T1, human RXFP4 (hRXFP4-CHO stably transfected cell line) (Homo sapiens, UniProt Q8TDU9); assay: Measurement of intracellular cAMP concentration (in vitro RXFP4 agonist activity); type: cell-based; details: hRXFP4-CHO cells, 500 nM Forskolin; for Emax ± S.E.M. (% INSL5): relative to INSL5
T1 construct: expressed in transfected cells; host or cells: CHO
T1 sequence (Q8TDU9 whole entry): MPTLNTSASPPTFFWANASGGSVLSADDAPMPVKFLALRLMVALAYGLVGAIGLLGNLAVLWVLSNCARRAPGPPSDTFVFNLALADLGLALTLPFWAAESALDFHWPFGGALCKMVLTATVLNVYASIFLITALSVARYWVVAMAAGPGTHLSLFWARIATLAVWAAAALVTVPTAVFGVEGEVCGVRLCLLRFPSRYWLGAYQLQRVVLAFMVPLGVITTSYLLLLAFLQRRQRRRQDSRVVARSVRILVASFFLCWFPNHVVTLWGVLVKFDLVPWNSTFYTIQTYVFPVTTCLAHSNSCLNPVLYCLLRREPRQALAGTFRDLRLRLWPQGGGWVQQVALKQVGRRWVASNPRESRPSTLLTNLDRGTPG
Method: 1. Detection Method: Measurement of Intracellular cAMP Concentration
CAMP detection kit (PerkinElmer), cell culture box (Thermo Fisher Scientific), EnVision multifunctional enzyme-linked immunosorbent assay (PerkinElmer), Forskolin (Sigma Aldrich), IBMX (Sigma Aldrich), DSMO (Sigma Aldrich), hINSL5 (Genova, human insulin-like peptide 5), hRXFP4-CHO stably transfected cell line for stable expression of human RXFP4, and test compound.
Stably transfected hRXFP4-CHO cells were seeded at 2.5×10^5 cells/mL the day before the experiment to maintain a growth density of 70%-80% in the culture dish the next day. On the day of the experiment, cells were digested with trypsin free digestion solution or 0.02% EDTA PBS solution, centrifugated, the supernatant was discarded, and cAMP experimental buffer (0.5 mM IBMX+5 mM HEPES+0.1% BSA) was prepared using 1×HBSS (calcium and magnesium free) solution. The cells were resuspended and inoculated to a 384 well plate at 4000 cells per well. The compound which was diluted with DMSO to different concentrations were added to the above 384 well plate. At the same time, 500 nM Forskolin was added and incubated at room temperature for 40 minutes. Then Eu cAMP and ULight anti cAMP working solutions were added according to the cAMP detection kit instructions. After incubation at room temperature for 40 minutes, an EnVision multifunctional enzyme-linked immunosorbent assay reader was used to read the results (excitation wavelength of 320 or 340 nm, detection emission wavelength of 665 nm).

RXFP4 (HRXFP4 CHO cells) = target: T2, RXFP4 (HRXFP4 CHO cells) (Homo sapiens, UniProt Q8TDU9); assay: Ligand receptor affinity detection (Eu-R3/I5 competition on HRXFP4 CHO cells); type: binding; details: for Ki: 5 nM Eu-R3/I5, 1 hour room temperature, read-out: pKi ± S.E.M. (converted); for Span ± S.E.M. (% R3/I5): 5 nM Eu-R3/I5, relative to R3/I5
T2 construct: expressed in transfected cells; host or cells: CHO
T2 sequence (Q8TDU9 whole entry): as above
Method: 2. Detection Method: Ligand Receptor Affinity Detection
Stably transfected HRXFP4 CHO cells and Eu—R3/I5 (lanthanide element europium labeled chimeric peptide R3/I5), BMG POLARstar reader (BMG Labtech), and test compound.
HRXFP4 CHO was introduced into a 96 well plate at 80000 cells per well. After 24 hours of cell culture in the incubator, discarded the supernatant, and washed once with PBS, then a binding buffer containing 1% BSA was added and incubated at room temperature for 1 hour. The cell plate was then washed once with PBS, followed by the addition of different concentrations of positive controls and test compounds, and incubated at room temperature with 5 nM Eu—R3/I5 for 1 hour.
After washing the cell plate once with PBS, an enhancement solution was added. After 45 minutes, the fluorescence value was measured using a BMG POLARstar reader (excitation wavelength of 340 nm, detection emission wavelength of 614 nm).

Compound: CCOc1cc2c(cc1OC)CCN(C(=O)N1CCOCC1)[C@@H]2CCc1c[nH]c2ccc(OC)cc12 [(R)-A1, (R)-(7-ethoxy-6-methoxy-1-(2-(5-methoxy-1H-indol-3-yl)ethyl)-3,4-dihydroisoquinolin-2(1H)-yl)(morpholino)methanone]
- EC50 ([1]; 40 minutes room temperature): 933 nM
- Emax ± S.E.M. (% INSL5) [1]: 60.14 ± 10.64 % INSL5
- Ki (RXFP4 (HRXFP4 CHO cells)): > 100000 nM

Compound: CCOc1cc2c(cc1OC)CCN(C(=O)N1CCOCC1)[C@H]2CCc1c[nH]c2ccc(OC)cc12 [(S)-A1, (S)-(7-ethoxy-6-methoxy-1-(2-(5-methoxy-1H-indol-3-yl)ethyl)-3,4-dihydroisoquinolin-2(1H)-yl)(morpholino)methanone]
- pEC50 ± S.E.M. ([1]; 40 minutes room temperature): 7.24 ± 0.12
- Emax ± S.E.M. (% INSL5) [1]: 98.76 ± 5.71 % INSL5
- Ki (RXFP4 (HRXFP4 CHO cells)): 58.9 nM
- Span ± S.E.M. (% R3/I5) (RXFP4 (HRXFP4 CHO cells)): 81.87 ± 4.47 % R3/I5

Compound: CCOc1cc2c(cc1OC)CCN(C(=O)N1CCOCC1)C2CCc1c[nH]c2ccc(OC)cc12 (stereo not drawn) [Compound A1, (7-ethoxy-6-methoxy-1-(2-(5-methoxy-1H-indol-3-yl)ethyl)-3,4-dihydroisoquinolin-2(1H)-yl) (morpholino)methanone]
- EC50 ([1]; 40 minutes room temperature): 87.1 nM
- Emax ± S.E.M. (% INSL5) [1]: 87.64 ± 4.58 % INSL5
- Ki (RXFP4 (HRXFP4 CHO cells)): 148 nM
- Span ± S.E.M. (% R3/I5) (RXFP4 (HRXFP4 CHO cells)): 88.98 ± 6.07 % R3/I5

Compound: CCOc1cc2c(cc1OC)CCN(C(=O)N1CCC(F)CC1)C2CCc1c[nH]c2ccc(OC)cc12 (stereo not drawn) [Compound A3, (4-fluoropiperidin-1-yl) (7-ethoxy-6-methoxy-1-(2-(5-methoxy-1H-indol-3-yl)ethyl)-3,4-dihydroisoquinolin-2(1H)-yl)methanone]
- EC50 ([1]; 40 minutes room temperature): 204 nM
- Emax ± S.E.M. (% INSL5) [1]: 101.82 ± 9.08 % INSL5
- Ki (RXFP4 (HRXFP4 CHO cells)): 209 nM
- Span ± S.E.M. (% R3/I5) (RXFP4 (HRXFP4 CHO cells)): 86.26 ± 6.71 % R3/I5

Compound: CCOc1cc2c(cc1OC)CCN(C(=O)N1CCC(F)(F)CC1)C2CCc1c[nH]c2ccc(OC)cc12 (stereo not drawn) [Compound A4, (4,4-difluoropiperidin-1-yl) (7-ethoxy-6-methoxy-1-(2-(5-methoxy-1H-indol-3-yl)ethyl)-3,4-dihydroisoquinolin-2(1H)-yl)methanone]
- EC50 ([1]; 40 minutes room temperature): 57.5 nM
- Emax ± S.E.M. (% INSL5) [1]: 62.00 ± 5.42 % INSL5
- Ki (RXFP4 (HRXFP4 CHO cells)): 631 nM
- Span ± S.E.M. (% R3/I5) (RXFP4 (HRXFP4 CHO cells)): 66.34 ± 7.29 % R3/I5

Compound: CCOc1cc2c(cc1OC)CCN(C(=O)N1CC[S+]([O-])CC1)C2CCc1c[nH]c2ccc(OC)cc12 (stereo not drawn) [Compound A5, (7-ethoxy-6-methoxy-1-(2-(5-methoxy-1H-indol-3-yl)ethyl)-3,4-dihydroisoquinolin-2(1H)-yl)(1-oxothiomorpholinyl)methanone]
- EC50 ([1]; 40 minutes room temperature): 10200 nM
- Emax ± S.E.M. (% INSL5) [1]: 56.43 ± 4.70 % INSL5
- Ki (RXFP4 (HRXFP4 CHO cells)): > 100000 nM

Compound: CCOc1cc2c(cc1OC)CCN(C(=O)N1CCS(=O)(=O)CC1)C2CCc1c[nH]c2ccc(OC)cc12 (stereo not drawn) [Compound A6, (1,1-dioxothiomorpholino) (7-ethoxy-6-methoxy-1-(2-(5-methoxy-1H-indol-3-yl)ethyl)-3,4-dihydroisoquinolin-2(1H)-yl)methylmethanone]
- EC50 ([1]; 40 minutes room temperature): 9330 nM
- Emax ± S.E.M. (% INSL5) [1]: 51.74 ± 6.72 % INSL5
- Ki (RXFP4 (HRXFP4 CHO cells)): > 100000 nM

Compound: CCOc1cc2c(cc1OC)CCN(C(=O)c1ccccn1)C2CCc1c[nH]c2ccc(OC)cc12 (stereo not drawn) [Compound A9, (7-ethoxy-6-methoxy-1-(2-(5-methoxy-1H-indol-3-yl)ethyl)-3,4-dihydroisoquinolin-2(1H)-yl) (pyridin-2-yl)methanone]
- EC50 ([1]; 40 minutes room temperature): 14800 nM
- Emax ± S.E.M. (% INSL5) [1]: 44.09 ± 5.25 % INSL5
- Ki (RXFP4 (HRXFP4 CHO cells)): > 100000 nM

Compound: COc1ccc2[nH]cc(CCC3c4cc(OCc5ccccc5)c(OC)cc4CCN3C(=O)N3CCOCC3)c2c1 (stereo not drawn) [Compound A30, (7-(benzyloxy)-6-methoxy-1-(2-(5-methoxy-1H-indol-3-yl)ethyl)-3,4-dihydroisoquinolin-2(1H)-yl) (morpholino)methanone]
- EC50 ([1]; 40 minutes room temperature): 427 nM
- Emax ± S.E.M. (% INSL5) [1]: 82.33 ± 8.47 % INSL5
- Ki (RXFP4 (HRXFP4 CHO cells)): 851 nM
- Span ± S.E.M. (% R3/I5) (RXFP4 (HRXFP4 CHO cells)): 81.61 ± 7.65 % R3/I5

Compound: CCOc1cc2c(cc1OC)CCN(C(=O)N1CCOCC1)C2CCc1c[nH]c2ccc(C#N)cc12 (stereo not drawn) [Compound A57, 3-(2-(7-ethoxy-6-methoxy-2-(morpholine-4-carbonyl)-1,2,3,4-tetrahydroisoquinolin-1-yl)ethyl)-1H-indole-5-carbonitrile]
- EC50 ([1]; 40 minutes room temperature): 27.5 nM
- Emax ± S.E.M. (% INSL5) [1]: 82.15 ± 4.95 % INSL5
- Ki (RXFP4 (HRXFP4 CHO cells)): 129 nM
- Span ± S.E.M. (% R3/I5) (RXFP4 (HRXFP4 CHO cells)): 92.06 ± 3.95 % R3/I5

Compound: CCOc1cc2c(cc1OC)CCN(C(=O)N1CCOCC1)C2CCc1c[nH]c2c(C)cc(OC)cc12 (stereo not drawn) [Compound A58, (7-ethoxy-6-methoxy-1-(2-(5-methoxy-7-methyl-1H-indol-3-yl)ethyl)-3,4-dihydroisoquinolin-2(1H)-yl)(morpholino) methanone]
- EC50 ([1]; 40 minutes room temperature): 447 nM
- Emax ± S.E.M. (% INSL5) [1]: 92.58 ± 7.46 % INSL5
- Ki (RXFP4 (HRXFP4 CHO cells)): > 100000 nM

Compound: CCOc1cc2c(cc1OC)CCN(C(=O)N1CCOCC1)C2CCc1c[nH]c2c(CC)cccc12 (stereo not drawn) [Compound A60, (7-Ethoxy-1-(2-(7-ethyl-1H-indol-3-yl)ethyl)-6-methoxy-3,4-dihydroisoquinolin-2(1H)-yl) (morpholino)methanone]
- EC50 ([1]; 40 minutes room temperature): 417 nM
- Emax ± S.E.M. (% INSL5) [1]: 72.49 ± 8.04 % INSL5
- Ki (RXFP4 (HRXFP4 CHO cells)): 1700 nM
- Span ± S.E.M. (% R3/I5) (RXFP4 (HRXFP4 CHO cells)): 75.02 ± 7.56 % R3/I5

Compound: CCOc1cc2c(cc1OC)CCN(C(=O)N1CCOCC1)C2CCc1c[nH]c2ncccc12 (stereo not drawn) [Compound A69, (1-(2-(1H-pyrrolo[2,3-b]pyridin-3-yl)ethyl)-7-ethoxy-6-methoxy-3,4-dihydroisoquinolin-2(1H)-yl) (morpholino)methanone]
- EC50 ([1]; 40 minutes room temperature): 10000 nM
- Emax ± S.E.M. (% INSL5) [1]: 58.19 ± 7.80 % INSL5
- Ki (RXFP4 (HRXFP4 CHO cells)): > 100000 nM

Compound: COc1cc2c(cc1OC)[C@H](CCc1c[nH]c3cc(C)ccc13)N(C(=O)C1CCOCC1)CC2 [Compound A76, (S)-(6,7-dimethoxy-1-(2-(6-methyl-1H-indol-3-yl)ethyl)-3,4-dihydroisoquinolin-2(1H)-yl) (tetrahydro-2H-pyran-4-yl)methanone]
- EC50 ([1]; 40 minutes room temperature): 3160 nM
- Emax ± S.E.M. (% INSL5) [1]: 43.69 ± 7.43 % INSL5
- Ki (RXFP4 (HRXFP4 CHO cells)): > 100000 nM

Compound: COc1cc2c(cc1OC)C(CCc1c[nH]c3ccccc13)N(C(=O)c1ccncc1)CC2 (stereo not drawn) [Compound A77, (1-(2-(1H-indol-3-yl)ethyl)-6,7-dimethoxy-3,4-dihydroisoquinolin-2(1H)-yl)(pyridin-4-yl)methanone]
- EC50 ([1]; 40 minutes room temperature): 437 nM
- Emax ± S.E.M. (% INSL5) [1]: 25.96 ± 5.50 % INSL5
- Ki (RXFP4 (HRXFP4 CHO cells)): > 100000 nM

Compound: CCOc1cc2c(cc1OC)CCN(C(=O)c1cscn1)[C@H]2CCc1c[nH]c2ccc(OC)cc12 [Compound A80, (S)-(7-ethoxy-6-methoxy-1-(2-(5-methoxy-1H-indol-3-yl)ethyl)-3,4-dihydroisoquinolin-2(1H)-yl) (thiazol-4-yl)methanone]
- Ki (RXFP4 (HRXFP4 CHO cells)): > 100000 nM

Compound: COc1cc2c(cc1OC)C(Cc1c[nH]c3ccccc13)N(CC1CCOCC1)CC2 (stereo not drawn) [Compound A83]
- Ki (RXFP4 (HRXFP4 CHO cells)): > 100000 nM
